# According to patent publication US20230000063A1, “SYSTEM FOR DETECTING EXTRACELLULAR PURINERGIC RECEPTOR LIGAND, AND NON-HUMAN ANIMAL HAVING THE SYSTEM INTRODUCED THEREINTO” (Chugai Seiyaku Kabushiki Kaisha, priority 2019, published 2023):
# Assays:
# [1] = tested on: human P2Y11; assay: Detection of in vivo ATP signal in P2Y11-split Luc (C-terminal)/Arrestin-split Luc (N-terminal) double knock-in mouse; settings: 50 μL of 1 mM ATP + 15 mg/mL VivoGlo Luciferin subcutaneously, IVIS 10 to 20 minutes after, not detected in single-allele or wild type mice
# Procedure: To a P2Y11-split Luc (C-terminal)/Arrestin-split Luc (N-terminal) double knock-in mouse, 50 μL of a mixture of ATP at a final concentration of 1 mM and 15 mg/mL VivoGlo Luciferin (Promega #P1043) was subcutaneously administered. A luminescent signal intensity was measured with IVIS Spectrum CT (Perkin Elmer) 10 to 20 minutes after the ATP administration. The measurement was performed under conditions of exposure time of 180 sec, with medium binning, and F/stop of 1, and thus the luminescent signal was analyzed in terms of a physical quantity (photons/sec).
# [2] = molecular target: T1, human P2Y11 (Homo sapiens, UniProt Q96G91); assay: Detection of in vitro ATP concentration in fibroblasts derived from the double knock-in mouse; assay type: cell-based; settings: fibroblast from double knock-in mouse; 0 to 1000 μM ATP + VivoGlo Luciferin; IVIS, exposure 180 sec
# T1 construct: expressed in transfected cells; host or cells: cells of the P2Y11-split Luc (C-terminal)/Arrestin-split Luc (N-terminal) double knock-in mouse (Rosa26 locus): in vivo, and a skin fibroblast line derived from it
# T1 sequence (Q96G91 1-374): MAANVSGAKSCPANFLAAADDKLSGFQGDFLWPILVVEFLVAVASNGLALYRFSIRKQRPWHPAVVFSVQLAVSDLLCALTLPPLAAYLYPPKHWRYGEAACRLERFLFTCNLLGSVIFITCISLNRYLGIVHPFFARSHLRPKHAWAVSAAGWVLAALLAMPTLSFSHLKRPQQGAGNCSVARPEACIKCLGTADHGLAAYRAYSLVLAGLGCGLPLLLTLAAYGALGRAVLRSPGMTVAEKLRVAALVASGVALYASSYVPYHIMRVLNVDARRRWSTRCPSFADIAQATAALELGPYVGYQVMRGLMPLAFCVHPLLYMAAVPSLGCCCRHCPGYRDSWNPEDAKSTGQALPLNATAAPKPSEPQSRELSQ
# Procedure: A skin tissue was collected from a P2Y11-split Luc (C-terminal)/Arrestin-split Luc (N-terminal) double knock-in mouse, and was sliced with a scalpel in a culture fluid, and the resultant was covered with a cover glass with a dermis side in contact with a bottom of a culture dish, and was cultured in a D-MEM medium supplemented with 10% FBS and 1×NEAA. Fibroblasts confirmed to have migration/growth of cells were collected by a trypsin treatment, and the resultant was repeatedly passaged to establish a fibroblast cell line.
# The fibroblast derived from the P2Y-11 split Luc (C-terminal)/Arrestin-split Luc (N-terminal) double knock-in mouse was seeded in a 24-well culture plate. On the next day, ATP at a final concentration of 0 to 1000 μM and VivoGlo Luciferin (Promega #P1043) were added thereto, and a luminescent signal was detected with IVIS Spectrum CT (Perkin Elmer). The measurement was performed under conditions of exposure time of 180 sec, with medium binning, and F/Stop of 1, and thus the luminescent signal was analyzed in terms of a physical quantity (photons/sec).
# [3] = molecular target: T1, human P2Y11; assay: In vivo imaging of ATP at known concentration in the double knock-in mouse; settings: 50 μL of 0, 1, 2, 4 or 8 mM ATP + 15 mg/mL VivoGlo Luciferin subcutaneously, IVIS 10 to 20 minutes after, exposure 60 sec
# Procedure: To a P2Y11-split Luc (C-terminal)/Arrestin-split Luc (N-terminal) double knock-in mouse, 50 μL of a mixture of ATP at a final concentration of 0 mM, 1 mM, 2 mM, 4 mM, or 8 mM and 15 mg/mL VivoGlo Luciferin (Promega #P1043) was subcutaneously administered. A luminescent signal intensity was measured with IVIS Spectrum CT (Perkin Elmer) 10 to 20 minutes after the ATP administration. The measurement was performed under conditions of exposure time of 60 sec, with medium binning, and F/stop of 1, and thus the luminescent signal was analyzed in terms of a physical quantity (photons/sec). […] Thus it was confirmed that the mouse functions as a concentration dependent reporter mouse (FIG. 6 and FIG. 7).
smiles,measurement,setting,value
Nc1ncnc2c1ncn2[C@@H]1O[C@H](COP(=O)(O)OP(=O)(O)OP(=O)(O)O)[C@@H](O)[C@H]1O [ATP],luminescent signal due to the ATP administration,[1],a luminescent signal due to the ATP administration was detected
same,luminescent signal intensity,[2],a concentration-dependent signal intensity was detected
same,luminescent signal intensity,[3],an ATP concentration-dependent signal intensity was detected
